Source: the supplement of paper PMC10307832

How the values were obtained:
Experiment in all cases: relative viability (nuclei count vs DMSO), 5 days (fraction); higher = more cells survive
[1] = compound: C1CC(C1)(C(=O)O)C(=O)O.[NH2-].[NH2-].[Pt+2] [Carboplatin] + Nc1nc2[nH]cc(CCc3ccc(C(=O)N[C@@H](CCC(=O)O)C(=O)O)cc3)c2c(=O)[nH]1 [Pemetrexed] (partner 0.2 µM)
Outline: (§1)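 Lung cancer cell lines in 1536-well plates were dosed by pin tool the day after seeding, either with one drug alone or with a fixed anchor-drug dose plus five library-drug doses (not always all listed) in √10 steps. After 5 days, cells were fixed and their nuclei stained in one step (final 0.05% Triton X-100, 1% formaldehyde, 1 ug/ml Hoechst), then counted on 4× images. Relative viability is the nuclei count in treated wells divided by that in vehicle wells. Values are medians of duplicate plates.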

[2] = compound: CC[C@H](C)N1C=C(C2=C(C=C(C=C21)C3=CN=C(C=C3)N4CCNCC4)C(=O)NCC5=C(C=C(NC5=O)C)C)C [GSK126] + COc1cc2c(Oc3ccc(NC(=O)C4(C(=O)Nc5ccc(F)cc5)CC4)cc3F)ccnc2cc1OCCCN1CCOCC1 [Foretinib] (partner 0.25 µM)
Outline: as §1

[3] = compound: CC[C@H](C)N1C=C(C2=C(C=C(C=C21)C3=CN=C(C=C3)N4CCNCC4)C(=O)NCC5=C(C=C(NC5=O)C)C)C [GSK126] + CS(=O)(=O)N1CCN(Cc2cc3nc(-c4cccc5[nH]ncc45)nc(N4CCOCC4)c3s2)CC1 [Pictilisib] (partner 1 µM)
Outline: as §1

[4] = compound: NS(=O)(=O)OC[C@@H]1C[C@@H](n2ccc3c(N[C@H]4CCc5ccccc54)ncnc32)C[C@@H]1O [MLN4924] + Cc1nc(NC(=O)N2CCC[C@H]2C(N)=O)sc1-c1ccnc(C(C)(C)C(F)(F)F)c1 [Alpelisib] (partner 2 µM)
Outline: as §1

Row | Cell Line | relative viability ([1]; first compound 0.08 µM) | relative viability ([1]; first compound 0.253 µM) | relative viability ([1]; first compound 0.8 µM) | relative viability ([1]; first compound 2.53 µM) | relative viability ([1]; first compound 8 µM) | relative viability ([2]; first compound 0.08 µM) | relative viability ([2]; first compound 0.253 µM) | relative viability ([2]; first compound 0.8 µM) | relative viability ([2]; first compound 2.53 µM) | relative viability ([2]; first compound 8 µM) | relative viability ([3]; first compound 0.08 µM) | relative viability ([3]; first compound 0.253 µM) | relative viability ([3]; first compound 0.8 µM) | relative viability ([3]; first compound 2.53 µM) | relative viability ([3]; first compound 8 µM) | relative viability ([4]; first compound 0.04 µM) | relative viability ([4]; first compound 0.1265 µM) | relative viability ([4]; first compound 0.4 µM) | relative viability ([4]; first compound 1.265 µM) | relative viability ([4]; first compound 4 µM)
1 | NCI-H322M | 0.688 | 0.601 | 0.613 | 0.594 | 0.616 | 0.942 | 1.03 | 0.958 | 1.13 | 0.972 | 0.431 | 0.517 | 0.507 | 0.509 | 0.454 | 0.783 | 0.786 | 0.713 | 0.259 | 0.321
2 | NCI-H358 | 0.179 | 0.21 | 0.188 | 0.16 | 0.174 | 0.742 | 0.629 | 0.66 | 0.859 | 0.786 | 0.32 | 0.347 | 0.37 | 0.332 | 0.442 | 1.01 | 0.899 | 0.34 | 0.189 | 0.162
3 | NCI-H441 | 0.289 | 0.258 | 0.271 | 0.243 | 0.241 | 0.889 | 0.866 | 0.975 | 0.926 | 0.715 | 0.495 | 0.638 | 0.432 | 0.539 | 0.428 | 0.549 | 0.526 | 0.296 | 0.123 | 0.168
4 | NCI-H460 | 0.0702 | 0.0594 | 0.0708 | 0.068 | 0.0641 | 1.04 | 0.998 | 0.977 | 0.997 | 1.06 | 0.371 | 0.391 | 0.335 | 0.361 | 0.338 | 0.677 | 0.688 | 0.662 | 0.0819 | 0.0199
5 | NCI-H520 | 0.701 | 0.791 | 0.686 | 0.617 | 0.493 | 1.04 | 0.693 | 0.719 | 0.78 | 0.909 | 0.265 | 0.261 | 0.271 | 0.256 | 0.281 | 0.535 | 0.432 | 0.308 | 0.22 | 0.181
6 | NCI-H596 | 0.533 | 0.473 | 0.548 | 0.464 | 0.475 | 0.854 | 0.497 | 1.08 | 0.975 | 0.809 | 0.386 | 0.404 | 0.378 | 0.382 | 0.37 | 0.468 | 0.61 | 0.426 | 0.664 | 0.52
7 | NCI-H647 | 0.176 | 0.18 | 0.172 | 0.203 | 0.143 | 1.21 | 1.23 | 0.971 | 1.45 | 1.26 | 0.441 | 0.351 | 0.404 | 0.528 | 0.337 | 1.04 | 0.653 | 0.18 | 0.0485 | 0.0516
8 | NCI-H650 | 0.935 | 0.97 | 0.947 | 1 | 0.903 | 1.15 | 1.02 | 0.954 | 1.02 | 1.03 | 1.02 | 0.781 | 0.884 | 0.884 | 0.801 | 1.06 | 0.513 | 0.339 | 0.204 | 0.232
